Measurements reported in US20190086391A1, “METHOD AND SYSTEM FOR CONTINUOUS BIOSENSING” (Yissum Research Development Company of the Hebrew …, priority 2016, published 2019).
“And” between values parts separate entries of the source, which are not always exact repeats. Identical values can stand only once.

How the values were obtained:
HepG2/C3A cells [1] = assay: Seahorse Mitochondrial Stress Test (OCR, ECAR), static culture; type: cell-based, human; details: 50 μM; for decrease in maximal mitochondrial capacity: after uncoupler injection
Description: HepG2/C3A cells were plated in gelatin-coated SeaHorse XFp cell culture miniplates (Seahorse Bioscience, USA) and cultured for 24 hours. Subsequently, cultures were treated with medium containing 50 μM troglitazone for 6 hours, 50 μM rotenone for 3 hours, or vehicle control prior to initiation of assay. Mitochondrial Stress Test assay was conducted per manufacturer instructions (29). Briefly, cells were incubated in unbuffered XF Base Medium supplemented with 2 mM glutamine, 1 mM sodium pyruvate, and 10 mM glucose (pH 7.4) for 1 hour at 37° C. in a non-CO2 incubator. Basal oxygen consumption rate (OCR) was measured for 30 min, followed by injection of 1 μM oligomycin, a mitochondrial […] inhibitor that completely blocks oxidative phosphorylation. The decrease in OCR due to oligomycin treatment is defined as oxidative phosphorylation rate. 1 μM carbonyl cyanide-4 (trifluoromethoxy) phenylhydrazone (FCCP), an uncoupling agent, is added at 60 min to measure maximal mitochondrial activity followed by complete inhibition at 90 min using a mixture of 0.5 μM antimycin A and rotenone, mitochondrial Complex III and Complex I inhibitors. Basal extracellular acidification rates (ECAR) was measured for 30 min, in the presence of 10 mM glucose, followed by injection of 1 μM oligomycin. The increase in ECAR due to oligomycin treatment was defined as glycolytic capacity. Data are presented normalized to […] cells as determined by Hoechst DNA content assay.

HepG2/C3A cells [2] = assay: Seahorse glutamine oxidation assay; type: cell-based, human; details: 50 μM, static culture
Description: HepG2/C3A cells were plated in gelatin-coated XFp cell culture miniplates and cultured for 24 hours. Subsequently, cultures were treated with medium containing 50 μM troglitazone for 6 hours, 50 μM rotenone for 3 hours, or vehicle control prior to initiation of assay. Glutamine oxidation assay was conducted per manufacturer instructions. Briefly, cells were incubated in unbuffered XF Base Medium supplemented with 2 mM Glutamine, 1 mM sodium pyruvate, and 10 mM glucose (pH 7.4) for 1 hour at 37° C. in a non-CO2 incubator. Glutamine oxidation was profiled by successive injections of 3 μM BPTES, an allosteric inhibitor of glutaminase (GLS1), and a mixture of 4 μM etomoxir, a carnitine palmitoyl-transferase 1A (CPT1A) inhibitor and 2 μM UK5099 a mitochondrial pyruvate carrier inhibitor, blocking fatty acid oxidation and […], respectively. The decrease in baseline OCR due to BPTES treatment was defined as the rate of glutaminolysis. Data are presented normalized to 10^6 cells as determined by Hoechst DNA content assay.

HepG2/C3A cells [3] = assay: Flux balance analysis of metabolic pathways and ATP production; type: cell-based, human; details: 50 μM; for ATP production, % of untreated cells: calculated from flux balance; for Glutaminolysis (calculated metabolic flux) / Glycolysis (calculated metabolic flux) / Lipogenesis (calculated metabolic flux) / Respiration (calculated metabolic flux): troglitazone 6 hours, rotenone 3 hours
Description: Glucose uptake, oxygen uptake and lactate production rates were measured by calculating the change in metabolite concentration between the bioreactor in- and outflow, as function of perfusion rate and cell number as described above. Metabolic rates were calculated assuming negligible contribution to oxygen uptake by fatty acid oxidation and enzymatic activity. Low level of lipids in the culture medium ensured that fatty acid uptake was 50-fold lower than glucose while glutamine contribution to the Krebs cycle was minor (results).
Based on these assumptions, oxidative phosphorylation flux was calculated by dividing oxygen uptake rate by six. 32 ATP molecules generated by complete oxidation of 1 molecule of glucose were estimated. Glycolysis flux was calculated by dividing lactate production rate by two, with maximal rate defined by glucose uptake rate minus the oxidative phosphorylation flux. ATP production in glycolysis was estimated to be 2 molecules per molecule of glucose. It was assumed that any glucose left over was directed toward lipogenesis, as the contribution of pentose phosphate pathway in nonproliferating cells is minor (31). Finally, it was assumed that excess lactate was produced by glutaminolysis, and confirmed the assumption using offline measurement of glutamine uptake (FIGS. 10A and 10B). ATP production in glutaminolysis was estimated to be 3 molecules per molecule of lactate generated.

HepG2/C3A cells [4] = assay: TUNEL apoptosis assay; type: cell-based, human; details: 24 hours exposure to 200 μM
Description: (§1) PMDS microwell inserts were removed from the bioreactor following 24 hours exposure to rotenone or troglitazone. Cholestasis was evaluated using 5(6)-carboxy-2′, 7′-dichlorofluorescein diacetate (CDFDA) cell permeable dye which is metabolized to fluorescent CDF and secreted to active bile canaliculi by active multidrug resistance-associated protein 2 (MRP2). Briefly, cells were incubated with 2 μg/mL of CDFDA and 1 μg/mL of Hoechst 33342 for 20 min, and washed with PBS. Number of bile canaliculi foci was normalized for number of Hoechst-labeled nuclei. Apoptosis was evaluated using DeadEnd™ fluorometric TUNEL system (Promega, USA) according to manufacturer directions. Briefly, cells were fixed in 4% paraformaldehyde, permeabilized and exposed to fluorescein-12-dUTP and terminal deoxynucleotidyl transferase (TdT), dyeing apoptotic nuclei green. The reaction was subsequently stopped and the cells counterstained for Hoechst. A percent apoptotic nucleus was calculated by dividing the number of TUNEL to Hoechst positive nuclei.

HepG2/C3A cells [5] = assay: Quantification of ATP/ADP ratio; type: cell-based, human; details: 50 μM
Description: Intracellular ATP and ADP quantification was carried out using Abeam ADP/ATP Assay Kit (#ab65313), according to manufacturer's instructions. […] Cells were incubated in nucleotide releasing buffer for 5 min at room temperature, with gentle shaking. Background bioluminescence reading of the reaction mix was taken for calibration, followed by 2 min incubation of 50 μl sample solution in each reaction well, and a bioluminescence reading to measure cellular ATP content. ADP converting enzyme was then added, as instructed, following incubation of 2 min at room temperature to measure total ADP+ATP.

HepG2/C3A organoids = assay: LIVE/DEAD cell viability staining; type: cell-based; details: 50 μM, 24 hours
Description: Unless otherwise noted, cell viability was determined utilizing LIVE/DEAD Cytotoxicity kit (Molecular Probes, Eugene, Oreg.) according to manufacturer's instructions. In brief, cultures were incubated with 2 μM Calcein AM and 3 μM ethidium homodimer-1 for 25 minutes. Hydrolysis by functional intracellular esterases causes live cells to fluoresce green, while the punctured membranes of dead cells permit ethidium homodimer-1 to bind DNA and fluoresce red. Cellular viability was calculated by live to dead ratio and normalized to negative control.

HepG2/C3A cells [6] = assay: CDFDA staining for cholestasis (CDF retention, MRP2); type: cell-based, human; details: 24 hours exposure to 200 μM; due to inhibition of MRP2
Description: as §1

[7] = surrogate of lactate production

SMILES	decrease in (mitochondrial) basal metabolic rate (HepG2/C3A cells [1]; static culture)	decrease in maximal mitochondrial capacity (HepG2/C3A cells [1]; static culture)	increase in glutamine oxidation rate (glutaminolysis) (HepG2/C3A cells [2])	ATP production, % of untreated cells (HepG2/C3A cells [3])	Glutaminolysis (calculated metabolic flux) (HepG2/C3A cells [3])	Glycolysis (calculated metabolic flux) (HepG2/C3A cells [3])	Lipogenesis (calculated metabolic flux) (HepG2/C3A cells [3])	Respiration (calculated metabolic flux) (HepG2/C3A cells [3])	also measured
C=C(C)[C@H]1Cc2c(ccc3c2O[C@@H]2COc4cc(OC)c(OC)cc4[C@@H]2C3=O)O1 [rotenone]	83% and 83±5%	87%	382±115%	less than 36%	0.56 nmol/min/10^6 cells	0.97 nmol/min/10^6 cells	0 nmol/min/10^6 cells	0.03 nmol/min/10^6 cells	decrease in oxidative phosphorylation (HepG2/C3A cells [1]; static culture): 85±5% and 85±8%; glycolytic capacity change (HepG2/C3A cells [1]; static culture): relatively unchanged; decrease in extracellular acidification rate (ECAR) (HepG2/C3A cells [1]; [7]): 21±12%; increase in glutaminolysis (HepG2/C3A cells [2]): 4±1 folds; decrease in oxidative phosphorylation flux (HepG2/C3A cells [3]; after 3 hours of exposure): 90%; increase in glycolysis (flux) (HepG2/C3A cells [3]; after 3 hours of exposure): 34%; increase in apoptosis (TUNEL) (HepG2/C3A cells [4]): 14 fold and 14±2 fold; decrease in ATP/ADP ratio (HepG2/C3A cells [5]): 47%
Cc1c(C)c2c(c(C)c1O)CCC(C)(COc1ccc(CC3SC(=O)NC3=O)cc1)O2 (stereo not drawn) [troglitazone]	20±6%	22±9%	26±30%	97%	0.02 nmol/min/10^6 cells	2.25 nmol/min/10^6 cells	0 nmol/min/10^6 cells	0.25 nmol/min/10^6 cells	increase in extracellular acidification rate (ECAR) (HepG2/C3A cells [1]; [7]): 43±43%; decrease in oxidative phosphorylation flux (HepG2/C3A cells [3]; after 6 hours of exposure): 23%; increase in glycolysis (flux) (HepG2/C3A cells [3]; after 6 hours of exposure): 51%; cell death (Live/Dead) (HepG2/C3A organoids): Less than 5%; cell viability compared with untreated control (HepG2/C3A organoids): not significantly different from untreated control; increase in intracellular accumulation of bile acids / CDF staining (cholestasis) (HepG2/C3A cells [6]): 4.5 fold and 4.5±0.6 fold
